Here are results for 19 molecules from patent publication US20230140983A1, “PYRIDAZINE DERIVATIVES FOR MODULATING NUCLEIC ACID SPLICING” (REMIX THERAPEUTICS INC., priority 2020, published 2023).

Where a name gives a salt, the structure may show the parent alone. Read-outs that look alike come from different tables or passages of the source. Where only a bound is given, the exact number is not on record here.

In general, IC50 refers to the concentration at which inhibition is half-maximal. For orientation: AC50 means the concentration at which the activity in the assay is half-maximal.

What all share (format): cell-based
One test deals with SMN2. Nature of the test: Gene panel canonical junction qPCR assay, SMN2 CJ mRNA. To be noted: Table 9, CJ mRNA decrease, read-out: SMN2 IC50 (decrease in CJ mRNA levels). As to the method:
(§1) To set up 10 uL RT-qPCR reactions, cell lysates were transferred to 384-well qPCR plates containing the master mix according to the table below. The plates were sealed, gently vortexed, and spun down before the run. The volumes were adjusted accordingly in some instances where the reaction was carried in 20 uL. The table below summarizes the components of the RT-qPCR reactions:
(§2) The RT-qPCR reaction was performed using a QuantStudio (ThermoFisher) under the following fast cycling conditions. All samples and standards were analyzed at least in duplicate. In some instances, bulk room temperature (RT) step of 5-10 minutes was completed for all plates before proceeding with qPCR. The table below summarizes the PCR cycle:
(§3) The data analysis was performed by first determining the ΔCt vs the housekeeper gene. This ΔCt was then normalized against the DMSO control (ΔΔCt) and converted to RQ (relative quantification) using the 2^(−ΔΔCt) equation. The RQ were then converted to a percentage response by arbitrarily setting an assay window of 3.5 ΔCt for HTT-CJ and an assay window of 9 ΔCt for HTT-AJ. […] The percentage response was then fitted to the 4 parametric logistic equation to evaluate the concentration dependence of compound treatment. The increase in AJ mRNA is reported as AC50 (compound concentration having 50% response in AJ increase) while the decrease in CJ mRNA levels is reported as IC50 (compound concentration having 50% response in CJ decrease).
(§4) Additional studies were carried out for a larger panel of genes using the protocol provided above. The junction between flanking upstream and downstream exons was used to design canonical junction qPCR assays. At least one of the forward primer, reverse primer or the CY5-labeled 5′ nuclease probe (with 3′ quencher such as ZEN/Iowa Black FQ) was designed to overlap with the exon junction to capture the CJ mRNA transcript. BLAST was used to confirm the specificity of the probeset and parameters such as melting temperature, GC content, amplicon size, and primer dimer formation are considered during their design. Data for the decrease in CJ mRNA levels for three exemplary genes (HTT, SMN2, and Target C) analyzed in this panel are reported as IC50 (compound concentration having 50% response in CJ decrease).

The test system of test [1] is HTT. Briefly: Gene panel canonical junction qPCR assay, HTT CJ mRNA. The settings on record: Table 9, CJ mRNA decrease, read-out: HTT IC50 (decrease in CJ mRNA levels). As to the method: as §1, §2, §3, §4
For orientation: Quantitative PCR measures a nucleic acid by following its amplification.

Test [2] has as its system HTT. Briefly: Splicing assay (RT-qPCR on cell lysates) monitoring HTT splice variants: AJ and CJ mRNA. The settings on record: concentration having 50% response. Summed up: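 Cell lysates were analysed by RT-qPCR, with ΔCt taken against a housekeeping gene and normalised to DMSO to give RQ by 2^(−ΔΔCt). Assay windows were set at 9 ΔCt for AJ and 3.5 ΔCt for CJ, and 4-parameter fits gave AC50 for the AJ increase and IC50 for the CJ decrease.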

The next test concerns Target C. Nature of the test: Gene panel canonical junction qPCR assay, Target C CJ mRNA. The settings on record: Table 9, CJ mRNA decrease, read-out: Target C IC50 (decrease in CJ mRNA levels). As to the method: as §1, §2, §3, §4
Where [3] appears, read: Table 7, decrease in CJ mRNA, read-out: HTT CJ AC50.
The mark [4] stands for this setting: Table 7, increase in AJ mRNA, read-out: HTT AJ AC50.
Where [5] appears, read: Table 8, decrease in CJ mRNA, read-out: HTT CJ AC50.
The mark [6] stands for this setting: Table 8, increase in AJ mRNA, read-out: HTT AJ AC50.

For the molecule `CC1(C)CC(Oc2ccc(-c3ccc(-c4cn[nH]c4)c4ncsc34)nn2)CC(C)(C)N1` [Compound 181], the IC50 was less than 0.1 µM in the test with SMN2, greater than 10 µM with HTT [1] and greater than 10 µM in the test with Target C. The AC50 with HTT [2] (setting [3]) is greater than 5 µM; with HTT [2] (setting [4]) it was greater than 5 µM; in the test on HTT [2] (setting [5]), greater than 10 µM; with HTT [2] (setting [6]), greater than 10 µM.
For `c1nc2c(-c3cn[nH]c3)ccc(-c3ccc(N4CCC5(CCCNC5)C4)nn3)c2s1` (stereo not shown) [Compound 191], the IC50 with SMN2 was 1 to 10 µM; in the test on HTT [1], greater than 10 µM; in the test with Target C, greater than 10 µM. For the same molecule, the AC50 in the test on HTT [2] (setting [5]) and with HTT [2] (setting [6]) was greater than 10 µM throughout.
As for `c1nc2c(-c3cn[nH]c3)ccc(-c3ccc(N4CCNCC4)nn3)c2s1` [Compound 185], the half-inhibitory concentration (IC50) in the test with SMN2 is 0.1 to 1 µM; in the test on HTT [1], greater than 10 µM; in the test on Target C, greater than 10 µM. Besides, the AC50 with HTT [2] (setting [3]) was greater than 5 µM; in the test on HTT [2] (setting [4]) it was greater than 5 µM; with HTT [2] (setting [5]) it was greater than 10 µM; in the test on HTT [2] (setting [6]) it was 1 to 10 µM.
As for `c1nc2c(-c3cn[nH]c3)ccc(-c3ccc(OC4CCNCC4)nn3)c2s1` [Compound 183], the IC50 in the test with SMN2, with HTT [1] and with Target C was 0.1 to 1 µM each time. Moreover, the AC50 is greater than 5 µM with HTT [2] (setting [3]), greater than 5 µM in the test with HTT [2] (setting [4]), 0.1 to 1 µM in the test on HTT [2] (setting [5]) and 0.1 to 1 µM in the test on HTT [2] (setting [6]).
As for `CN(c1ccc(-c2ccc(-c3cnn(C)c3)c3scnc23)nn1)C1CC(C)(C)NC(C)(C)C1` [Compound 175, N-methyl-6-[7-(1-methylpyrazol-4-yl)-1,3-benzothiazol-4-yl]-N-(2,2,6,6-tetramethylpiperidin-4-yl)pyridazin-3-amine], the IC50 is 1 to 10 µM in the test on SMN2, greater than 10 µM in the test with HTT [1] and greater than 10 µM with Target C. For the same molecule, the values for the concentration at half-maximal activity (AC50) in the test on HTT [2] (setting [5]) and in the test on HTT [2] (setting [6]) were greater than 10 µM and 1 to 10 µM, respectively.
As for `Fc1cc(-c2ccc(O[C@@H]3C[C@H]4CC[C@@H](C3)N4)nn2)c2[nH]ncc2c1-c1cn[nH]c1` [Compound 216, 7-[6-[(exo)-8-azabicyclo[3.2.1]octan-3-yloxy]pyridazin-3-yl]-5-fluoro-4-(1H-pyrazol-4-yl)-1H-indazole], the values for the IC50 in the test on SMN2, in the test on HTT [1] and with Target C were less than 0.1 µM, less than 0.1 µM and 0.1 to 1 µM, respectively. For the same molecule, the half-maximal activity concentration (AC50) in the test with HTT [2] (setting [5]) and in the test on HTT [2] (setting [6]) was less than 0.1 µM in each case.
For the molecule `c1n[nH]cc1-c1ccc(-c2ccc(OC3CCNCC3)nn2)c2[nH]ncc12` [Compound 230], the half-inhibitory concentration (IC50) in the test with SMN2 is 1 to 10 µM; in the test on HTT [1] it was greater than 10 µM; with Target C, greater than 10 µM. In addition, the AC50 with HTT [2] (setting [5]) and with HTT [2] (setting [6]) was greater than 10 µM throughout.
As for `c1nc2c(-c3cn[nH]c3)ccc(-c3ccc(N4CCC5(CCNC5)CC4)nn3)c2s1` [Compound 192], the IC50 in the test with SMN2, with HTT [1] and in the test on Target C was greater than 10 µM throughout. In addition, the AC50 in the test with HTT [2] (setting [5]) and in the test on HTT [2] (setting [6]) was greater than 10 µM in each case.
For `CCN(c1ccc(-c2ccc(-c3cn[nH]c3)c3ncsc23)nn1)C1CC(C)(C)NC(C)(C)C1` [Compound 225, N-ethyl-6-[4-(1H-pyrazol-4-yl)-1,3-benzothiazol-7-yl]-N-(2,2,6,6-tetramethylpiperidin-4-yl)pyridazin-3-amine], the IC50 in the test with SMN2 lay in the range of 0.1 to 1 µM; with HTT [1] it was 1 to 10 µM; in the test on Target C, 1 to 10 µM. In addition, the AC50 in the test with HTT [2] (setting [5]) and in the test with HTT [2] (setting [6]) was 1 to 10 µM in each case.
`CN(c1ccc(-c2ccc(-c3cn[nH]c3)c3ncsc23)nn1)[C@H]1C[C@]2(C)CC[C@](C)(C1)N2` [Compound 204, (exo-)-N,1,5-trimethyl-N-[6-[4-(1H-pyrazol-4-yl)-1,3-benzothiazol-7-yl]pyridazin-3-yl]-8-azabicyclo[3.2.1]octan-3-amine]: the IC50 in the test on SMN2, in the test with HTT [1] and with Target C was less than 0.1 µM each time. The AC50 in the test with HTT [2] (setting [5]) and with HTT [2] (setting [6]) was less than 0.1 µM in each case.
Regarding `c1nc2c(-c3cn[nH]c3)ccc(-c3ccc(N4CC5(CCNCC5)C4)nn3)c2s1` [Compound 197], the results for the IC50 in the test with SMN2, in the test on HTT [1] and in the test with Target C were 1 to 10 µM, 1 to 10 µM and greater than 10 µM, respectively. Moreover, the AC50 in the test with HTT [2] (setting [5]) and in the test on HTT [2] (setting [6]) was 1 to 10 µM in each case.
Consider `CN(c1ccc(-c2ccc(-c3ccc(=O)[nH]c3)c3scnc23)nn1)C1CC(C)(C)NC(C)(C)C1` [Compound 180], for which the IC50 with SMN2, in the test on HTT [1] and in the test with Target C was 0.1 to 1 µM throughout. Also, the AC50 in the test on HTT [2] (setting [5]) and in the test on HTT [2] (setting [6]) was 0.1 to 1 µM in each case.
Take `c1nc2c(-c3cn[nH]c3)ccc(-c3ccc(C4CCNCC4)nn3)c2s1` [Compound 206]: the IC50 is less than 0.1 µM with SMN2, 1 to 10 µM in the test with HTT [1] and greater than 10 µM in the test on Target C. Also, the concentration at half-maximal activity (AC50) in the test with HTT [2] (setting [5]) was 1 to 10 µM; in the test with HTT [2] (setting [6]), greater than 10 µM.
Take `c1nc2c(-c3cn[nH]c3)ccc(-c3ccc(N[C@@H]4C[C@H]5CCC[C@@H](C4)N5)nn3)c2s1` [Compound 215]: the IC50 in the test on SMN2, in the test with HTT [1] and in the test with Target C was less than 0.1 µM throughout. Further, the AC50 in the test with HTT [2] (setting [5]) and with HTT [2] (setting [6]) was less than 0.1 µM each time.
Regarding `CN1C[C@@H]2CN(c3ccc(-c4ccc(-c5cn[nH]c5)c5ncsc45)nn3)C[C@@H]2C1` [Compound 198, 7-{6-[(exo)-5-methyl-hexahydropyrrolo[3,4-c]pyrrol-2-yl]pyridazin-3-yl}-4-(1H-pyrazol-4-yl)-1,3-benzothiazole hydrochloride], the IC50 in the test with SMN2 was 0.1 to 1 µM; with HTT [1], greater than 10 µM; in the test with Target C, greater than 10 µM. Besides, the AC50 with HTT [2] (setting [5]) and with HTT [2] (setting [6]) was greater than 10 µM in each case.
As to `c1nc2c(-c3cn[nH]c3)ccc(-c3ccc(N4CCC5(CC4)CNC5)nn3)c2s1` [Compound 188], the IC50 in the test with SMN2, in the test with HTT [1] and in the test with Target C was greater than 10 µM throughout. The AC50 is greater than 5 µM with HTT [2] (setting [3]), greater than 5 µM with HTT [2] (setting [4]), greater than 10 µM with HTT [2] (setting [5]) and greater than 10 µM with HTT [2] (setting [6]).
For the molecule `c1nc2c(-c3cn[nH]c3)ccc(-c3ccc(N[C@@H]4C[C@H]5CC[C@@H](C4)N5)nn3)c2s1` [Compound 202, (exo-)-N-[6-[4-(1H-pyrazol-4-yl)-1,3-benzothiazol-7-yl]pyridazin-3-yl]-8-azabicyclo[3.2.1]octan-3-amine], the IC50 with SMN2 is less than 0.1 µM; with HTT [1] it was less than 0.1 µM; in the test with Target C it was 0.1 to 1 µM. Also, the AC50 in the test with HTT [2] (setting [5]) and with HTT [2] (setting [6]) was less than 0.1 µM throughout.
`c1n[nH]cc1-c1ccc(-c2ccc(N3CC4(CCCNC4)C3)nn2)c2[nH]ncc12` [Compound 218]: the IC50 with SMN2, with HTT [1] and in the test with Target C was greater than 10 µM throughout. Moreover, the AC50 with HTT [2] (setting [5]) and in the test with HTT [2] (setting [6]) was greater than 10 µM in each case.
With `c1nc2c(-c3cn[nH]c3)ccc(-c3ccc(N4CCC5(CCNCC5)C4)nn3)c2s1` [Compound 190], the IC50 with SMN2, in the test with HTT [1] and in the test with Target C was greater than 10 µM throughout. Besides, the concentration at half-maximal activity (AC50) with HTT [2] (setting [5]) and in the test with HTT [2] (setting [6]) was greater than 10 µM in each case.
